In one assay the test system is NO production in CB-SC. Briefly: Real time assay for NO production in CB-SC. It counts as cell-based, human.
A further assay relates to nitric oxide synthase. Kind of assay: Blocking of the inhibitory effect of stem cells on lymphocytes with nitric oxide synthase inhibitor. It counts as cell-based.
Assay [1] relates to CD4+CD25+CD62L+CD69+ Tregs. Kind of assay: Co-culture of PHA-stimulated lymphocytes with CB-SC in presence of CPM inhibitor and B1R antagonist. It counts as cell-based, human. The settings on record: MGTA 10 μM, DALKD 2 μM. The text has this: To examine the cell-cell contacting effects and CPM and B1R contribution to immune modulation of CB-SC on human Tregs, we performed co-culture experiments in the presence of CPM specific inhibitor MGTA and B1R specific inhibitor DALKD. Lymphocytes plated in trans-wells served as controls. […] Data are representative of five experiments.

Assay [2] deals with DNA methyltransferase (DNMT) activity of lymphocytes. Briefly: Regulation of DNA methyltransferase activity of lymphocytes by CB-SC-derived NO. It counts as cell-based.
The test system of another assay is allogeneic lymphocytes. Briefly: Suppression of CB-SC on allogeneic lymphocytes in presence of inhibitors. It counts as cell-based, human.
The mark [3] stands for this setting: in combination with B1R activator DAKD.

Turning to “des-Arg 10-bradykinin (KRPPGFSPF) [DAKD]”, the “NO production in CB-SC” value with NO production in CB-SC (agent alone) is “increased”. For the compound `NC(=NCCC[C@H](N)C(=O)O)N[N+](=O)[O-]` [L-NNA, N-omega-nitro-L-arginine], the “inhibitory effect of stem cells mediated by nitric oxide (NO)” value with nitric oxide synthase was “blocking”. Consider [Des-Arg10, Leu9] kallidin [DALKD], for which the “NO production in CB-SC” value in the assay on NO production in CB-SC (setting [3]) is “inhibited”. For the same compound, in assay [1], the “positive percentage of CD4+CD25+CD62L+CD69+ Tregs” value is listed as “decrease”.

Turning to `CC(=N)NCc1cccc(CN)c1` [1400 W], the “NO production in CB-SC” value in the assay with NO production in CB-SC (setting [3]) is “inhibited”. For the same compound, the “epigenetic regulation on DNMT activity of lymphocytes by CB-SC-derived NO” value in assay [2] was “significantly blocked”. Moreover, the “suppression of CB-SC on allogeneic lymphocytes” value with allogeneic lymphocytes was “reverse the suppression”.

For the origin of these results see patent US9101726B2, “Stem cell immune modulation methods of use and apparatus” (The Board of Trustees of the University of Illinois, priority 2009, dated 2015).
